Laboratory results from PubChem BioAssay (NCI).
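Assay format: 96-well plates, 48-hour exposure. GI50 = concentration required for 50% inhibition of growth. Definition used: TGI = concentration required for complete inhibition of growth.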

Legend:
Test in all cases: growth of human tumour cells (NCI), 48 h
HT29 colon = tested on: HT29 colon
NCI-H460 lung = tested on: NCI-H460 lung
OVCAR-5 ovarian = tested on: OVCAR-5 ovarian
MDA-MB-435 = tested on: MDA-MB-435
NCI-H226 lung = tested on: NCI-H226 lung
DU-145 prostate = tested on: DU-145 prostate
TK-10 renal = tested on: TK-10 renal
SF-268 CNS = tested on: SF-268 CNS
RXF 393 renal = tested on: RXF 393 renal
LOX IMVI melanoma = tested on: LOX IMVI melanoma

| SMILES | GI50 (HT29 colon) | TGI (HT29 colon) | GI50 (NCI-H460 lung) | TGI (NCI-H460 lung) | GI50 (OVCAR-5 ovarian) | TGI (OVCAR-5 ovarian) | GI50 (MDA-MB-435) | TGI (MDA-MB-435) | GI50 (NCI-H226 lung) | TGI (NCI-H226 lung) | GI50 (DU-145 prostate) | TGI (DU-145 prostate) | GI50 (TK-10 renal) | TGI (TK-10 renal) | GI50 (SF-268 CNS) | TGI (SF-268 CNS) | GI50 (RXF 393 renal) | TGI (RXF 393 renal) | TGI (LOX IMVI melanoma) | GI50 (LOX IMVI melanoma) |
| --- | --- | --- | --- | --- | --- | --- | --- | --- | --- | --- | --- | --- | --- | --- | --- | --- | --- | --- | --- | --- |
| O=C(Nc1ccc(CN2CCOCC2)cc1)c1[nH]ncc1Nc1ncnc2sccc12 | 0.686 µM | > 100 µM | 0.314 µM | 10.9 µM | 0.904 µM | > 100 µM | 0.525 µM | 11.7 µM | 0.163 µM | 0.63 µM | 0.382 µM | 15.5 µM | 1.64 µM | > 100 µM | 0.595 µM | 5.6 µM | 0.204 µM | 0.639 µM |  |  |
| C=CC(C)(O)/C=C/C=C(\C)C(CC1OC1(C)C)OC(=O)/C(C)=C\C (configuration not stated) |  | > 100 µM |  | > 100 µM |  | > 100 µM |  | > 100 µM |  |  |  | > 100 µM |  | > 100 µM |  | > 100 µM |  | > 100 µM | > 100 µM |  |
| C/C1=C/C2=CC(C)C[C@@H]2C(=O)[C@]2(C)C(=O)CC(C)(C)[C@H]2CC1=O (some centres not stated) |  | > 50 µM |  | > 50 µM |  | > 50 µM |  | > 50 µM |  | > 50 µM |  | > 50 µM |  | > 50 µM |  | > 50 µM |  |  | > 50 µM |  |
| C=CC(C=O)C1(O)CCOC(=O)/C1=C\N (configuration not stated) | > 100 µM | > 100 µM | > 100 µM | > 100 µM | > 100 µM | > 100 µM | > 100 µM | > 100 µM | > 100 µM | > 100 µM | > 100 µM | > 100 µM | > 100 µM | > 100 µM | > 100 µM | > 100 µM |  |  | > 100 µM | > 100 µM |
| O=c1cccccc1NCCCCCCNc1cccccc1=O |  | > 100 µM |  | > 100 µM |  | > 100 µM |  |  |  | > 100 µM |  |  |  | > 100 µM |  | > 100 µM |  |  | > 100 µM |  |
| CC(=O)O[C@H](C[C@H](C(C)C)N(C)C(=O)[C@@H](NC(=O)[C@H]1CCCCN1C)C(C)C)c1nc(C(=O)N[C@@H](Cc2ccccc2)C[C@H](C)C(=O)O)c(C(C)C)s1 | < 0.00333 µM | > 33.3 µM | < 0.00333 µM | 5.05 µM | 0.0176 µM | > 33.3 µM |  |  | 0.00335 µM | 0.382 µM | < 0.00333 µM | 0.0827 µM | 0.475 µM | > 33.3 µM | < 0.00333 µM | > 33.3 µM | < 0.00333 µM | > 33.3 µM | 10.5 µM | < 0.00333 µM |
| Cc1cccc(C(=O)/C=C/SC(=NC#N)SCc2ccccc2)c1 | 56.5 µM | > 100 µM | 36.5 µM | > 100 µM | 19.4 µM | 38.1 µM | 23.1 µM | 72.1 µM |  |  | 19.7 µM | 46.4 µM | 13.1 µM | 32 µM | 28.8 µM | > 100 µM | 22.7 µM | 57.6 µM | > 100 µM | 26.9 µM |
| O=C(c1ccccc1)c1ccc(OCCOc2ccc(Nc3ccccc3)cc2)cc1 |  |  |  | > 100 µM |  | > 100 µM |  |  |  | > 100 µM |  |  |  | 84.3 µM |  | > 100 µM |  | 67.3 µM | > 100 µM |  |
| CC/C(=C(/CC)c1ccc([O-])cc1)c1ccc([O-])cc1.CC/C(=C(\CC)c1ccc([O-])cc1)c1ccc([O-])cc1.O=C([CH-]C(=O)c1ccccc1)c1ccccc1.O=C([CH-]C(=O)c1ccccc1)c1ccccc1.O=C([CH-]C(=O)c1ccccc1)c1ccccc1.O=C([CH-]C(=O)c1ccccc1)c1ccccc1.[Ti+4].[Ti+4] | 29.8 µM | > 100 µM | 25.2 µM | > 100 µM | 45.8 µM | > 100 µM |  |  | 28.1 µM | 61.2 µM |  |  | 45.2 µM | > 100 µM | 35.8 µM | > 100 µM | 14.7 µM | 42.3 µM | > 100 µM | 43 µM |
| CO/N=C(\C)c1cccc(Nc2cc(-c3ccccc3)nc3c(O)cccc23)c1 | 21.8 µM | 59.7 µM |  |  | 20.3 µM | 60.7 µM | 1.97 µM | 5.56 µM | 19.8 µM | > 100 µM | 9.2 µM | 28 µM | 6.89 µM | 22.8 µM |  |  | 3.69 µM | 14.9 µM | 24.3 µM | 8.56 µM |
| CN(C)CCNC(=O)Cn1cc([N+](=O)[O-])c(=O)c2ccccc21 |  | > 100 µM |  | > 100 µM |  | > 100 µM |  | > 100 µM |  | > 100 µM |  | > 100 µM |  | > 100 µM |  | > 100 µM |  |  |  |  |
| CCOC(=O)C1=C(O)CSC1=Nc1ccccc1 |  | > 100 µM |  | > 100 µM |  | > 100 µM |  |  |  | > 100 µM |  |  |  | > 100 µM |  | > 100 µM |  |  | > 100 µM |  |
| CC(=O)c1cccc(NC(=O)C(=O)C(C2OC(=O)c3ccccc32)[N+](=O)[O-])c1 (configuration not stated) |  | > 100 µM |  | > 100 µM |  | > 100 µM |  |  |  | > 100 µM |  |  |  | > 100 µM |  | > 100 µM |  | > 100 µM | > 100 µM |  |
| COc1ccc(C(=O)C(C(=O)C(=O)Nc2ccc(Cl)c(Cl)c2)c2ccc(OC)cc2)cc1 (configuration not stated) |  | > 100 µM |  | > 100 µM |  | > 100 µM |  |  |  | > 100 µM |  |  |  | > 100 µM |  | > 100 µM |  | > 100 µM | > 100 µM |  |
| CN[C@@H](C)[C@@H](N)c1ccccc1 |  | > 100 µM |  | > 100 µM |  |  |  |  |  | > 100 µM |  |  |  | > 100 µM |  |  |  | > 100 µM | > 100 µM |  |
| CCCC[N+](CCCC)=c1ccc2nc3c(C)cc(N(CC)CC)cc3sc-2c1 |  |  |  |  | 0.349 µM | 1.61 µM | 0.205 µM | 1.2 µM | 0.265 µM | 1.72 µM | 0.307 µM | 1.47 µM | 0.102 µM | 1.58 µM | 0.339 µM | 1.78 µM | 0.322 µM | 1.41 µM | 1.13 µM | 0.146 µM |
| NNC(=S)N/N=C(/C(=O)Nc1cc(Cl)ccc1Cl)C1C(=O)Nc2ccccc2S1=O (configuration not stated) |  | > 100 µM |  | > 100 µM |  | > 100 µM |  |  |  | > 100 µM |  |  |  | > 100 µM |  | > 100 µM |  | > 100 µM | > 100 µM |  |
